According to ChEMBL document CHEMBL5291721, “A preclinical secondary pharmacology resource illuminates target-adverse drug reaction associations of marketed drugs” (Nat Commun, 2023):

How the values were obtained:
[1] = biological target: 5-hydroxytryptamine receptor 6 (Homo sapiens, UniProt P50406)
[2] = biological target: T1, Muscarinic acetylcholine receptor M4 (Homo sapiens, UniProt P08173)
T1 sequence (P08173 whole entry): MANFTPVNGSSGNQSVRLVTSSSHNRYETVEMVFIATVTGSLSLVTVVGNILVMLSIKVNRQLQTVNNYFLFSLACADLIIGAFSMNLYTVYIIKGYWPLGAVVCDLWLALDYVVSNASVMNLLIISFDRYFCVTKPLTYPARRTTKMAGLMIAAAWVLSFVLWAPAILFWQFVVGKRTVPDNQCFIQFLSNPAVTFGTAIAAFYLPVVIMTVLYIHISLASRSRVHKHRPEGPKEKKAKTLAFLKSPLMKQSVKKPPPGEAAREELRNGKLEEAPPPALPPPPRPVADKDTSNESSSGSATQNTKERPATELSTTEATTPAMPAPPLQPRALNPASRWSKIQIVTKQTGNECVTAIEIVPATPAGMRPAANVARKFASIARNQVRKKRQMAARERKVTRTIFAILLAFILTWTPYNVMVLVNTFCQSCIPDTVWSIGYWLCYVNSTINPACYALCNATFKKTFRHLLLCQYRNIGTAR

Substance-K receptor = biological target: T2, Substance-K receptor (Homo sapiens, UniProt P21452)
T2 sequence (P21452 whole entry): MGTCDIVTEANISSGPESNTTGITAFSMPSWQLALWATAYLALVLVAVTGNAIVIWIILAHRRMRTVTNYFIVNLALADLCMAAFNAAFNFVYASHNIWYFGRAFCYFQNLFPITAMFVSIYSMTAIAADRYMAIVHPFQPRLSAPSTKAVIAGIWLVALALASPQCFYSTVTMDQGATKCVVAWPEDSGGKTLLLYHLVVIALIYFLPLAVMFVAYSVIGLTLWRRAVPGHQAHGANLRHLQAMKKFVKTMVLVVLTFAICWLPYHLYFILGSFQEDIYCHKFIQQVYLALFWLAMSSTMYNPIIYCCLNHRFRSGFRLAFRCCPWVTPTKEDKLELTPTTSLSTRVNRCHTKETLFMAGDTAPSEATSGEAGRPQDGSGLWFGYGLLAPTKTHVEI

[3] = biological target: Gamma-aminobutyric acid type B receptor subunit 1 (Homo sapiens, UniProt Q9UBS5)
[4] = biological target: Rod cGMP-specific 3',5'-cyclic phosphodiesterase subunit alpha (Homo sapiens, UniProt P16499); assay type: functional
[5] = biological target: 5-hydroxytryptamine receptor 5A (Homo sapiens, UniProt P47898)
Cannabinoid receptor 1 = Cannabinoid receptor 1 (Homo sapiens, UniProt P21554); assay type: functional
[6] = biological target: 5-hydroxytryptamine receptor 7 (Homo sapiens, UniProt P34969)
[7] = biological target: T3, Muscarinic acetylcholine receptor M5 (Homo sapiens, UniProt P08912)
T3 sequence (P08912 whole entry): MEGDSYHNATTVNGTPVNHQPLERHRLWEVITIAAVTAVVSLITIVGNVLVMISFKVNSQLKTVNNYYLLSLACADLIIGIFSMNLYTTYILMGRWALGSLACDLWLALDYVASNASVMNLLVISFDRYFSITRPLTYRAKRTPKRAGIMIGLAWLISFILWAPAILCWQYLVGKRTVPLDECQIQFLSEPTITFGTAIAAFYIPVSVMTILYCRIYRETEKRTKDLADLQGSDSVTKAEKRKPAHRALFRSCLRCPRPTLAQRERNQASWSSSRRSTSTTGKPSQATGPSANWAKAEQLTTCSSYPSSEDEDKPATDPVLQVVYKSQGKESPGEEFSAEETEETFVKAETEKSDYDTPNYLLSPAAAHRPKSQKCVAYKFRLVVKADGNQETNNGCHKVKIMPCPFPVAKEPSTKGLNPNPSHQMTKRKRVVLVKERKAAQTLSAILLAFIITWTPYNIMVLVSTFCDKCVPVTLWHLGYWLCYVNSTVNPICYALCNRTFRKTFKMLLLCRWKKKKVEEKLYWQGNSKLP

[8] = biological target: T4, Type-2 angiotensin II receptor (Homo sapiens, UniProt P50052); assay type: functional
T4 sequence (P50052 whole entry): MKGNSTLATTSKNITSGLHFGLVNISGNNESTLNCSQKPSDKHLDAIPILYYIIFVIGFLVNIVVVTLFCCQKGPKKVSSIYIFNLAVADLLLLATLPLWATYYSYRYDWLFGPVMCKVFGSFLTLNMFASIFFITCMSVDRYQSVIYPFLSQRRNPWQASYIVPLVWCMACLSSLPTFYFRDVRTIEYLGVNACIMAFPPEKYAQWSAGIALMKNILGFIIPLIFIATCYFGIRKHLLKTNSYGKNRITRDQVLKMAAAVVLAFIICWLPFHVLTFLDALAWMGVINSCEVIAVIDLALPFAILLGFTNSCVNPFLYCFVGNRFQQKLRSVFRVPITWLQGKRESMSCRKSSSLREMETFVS

[9] = biological target: Voltage-dependent L-type calcium channel subunit alpha-1C (Homo sapiens, UniProt Q13936); assay type: functional, cell-based
[10] = biological target: T5, Alpha-2A adrenergic receptor (Homo sapiens, UniProt P08913)
T5 sequence (P08913 whole entry): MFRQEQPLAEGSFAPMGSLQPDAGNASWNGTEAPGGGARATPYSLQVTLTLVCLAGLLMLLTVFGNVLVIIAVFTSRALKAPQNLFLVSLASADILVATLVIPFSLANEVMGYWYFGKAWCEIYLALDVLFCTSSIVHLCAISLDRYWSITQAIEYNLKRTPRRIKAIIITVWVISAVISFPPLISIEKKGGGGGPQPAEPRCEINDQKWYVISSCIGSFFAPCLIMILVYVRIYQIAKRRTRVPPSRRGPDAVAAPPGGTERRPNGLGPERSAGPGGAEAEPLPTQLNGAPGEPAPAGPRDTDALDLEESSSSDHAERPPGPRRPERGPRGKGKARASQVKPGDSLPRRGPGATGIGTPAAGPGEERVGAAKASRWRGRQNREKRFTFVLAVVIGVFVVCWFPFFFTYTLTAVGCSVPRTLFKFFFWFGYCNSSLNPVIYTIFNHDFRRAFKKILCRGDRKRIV

[11] = biological target: Beta-1 adrenergic receptor (Homo sapiens, UniProt P08588); assay type: functional, cell-based
Histamine H1 receptor [12] = biological target: T6, Histamine H1 receptor (Homo sapiens, UniProt P35367); assay type: functional, cell-based
Histamine H1 receptor [13] = biological target: T6, Histamine H1 receptor; assay type: functional, cell-based; remark: listed apart in the source
Also: assay procedure not described here.

Chain of 5-hydroxytryptamine receptor 7 (P34969 whole entry): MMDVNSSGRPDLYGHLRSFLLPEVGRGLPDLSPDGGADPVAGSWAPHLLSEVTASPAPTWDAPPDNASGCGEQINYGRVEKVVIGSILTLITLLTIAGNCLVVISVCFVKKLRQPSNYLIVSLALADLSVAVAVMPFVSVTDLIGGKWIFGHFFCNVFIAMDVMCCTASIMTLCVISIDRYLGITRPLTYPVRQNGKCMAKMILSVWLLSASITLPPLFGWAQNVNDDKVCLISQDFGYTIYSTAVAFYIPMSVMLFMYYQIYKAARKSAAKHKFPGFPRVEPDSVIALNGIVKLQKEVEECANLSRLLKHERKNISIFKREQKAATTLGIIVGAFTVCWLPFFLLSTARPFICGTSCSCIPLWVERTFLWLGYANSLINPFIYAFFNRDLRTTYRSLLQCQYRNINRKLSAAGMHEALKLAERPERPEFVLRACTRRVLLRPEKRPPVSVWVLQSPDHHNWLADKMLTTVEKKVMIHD
Chain of Gamma-aminobutyric acid type B receptor subunit 1 (Q9UBS5 whole entry): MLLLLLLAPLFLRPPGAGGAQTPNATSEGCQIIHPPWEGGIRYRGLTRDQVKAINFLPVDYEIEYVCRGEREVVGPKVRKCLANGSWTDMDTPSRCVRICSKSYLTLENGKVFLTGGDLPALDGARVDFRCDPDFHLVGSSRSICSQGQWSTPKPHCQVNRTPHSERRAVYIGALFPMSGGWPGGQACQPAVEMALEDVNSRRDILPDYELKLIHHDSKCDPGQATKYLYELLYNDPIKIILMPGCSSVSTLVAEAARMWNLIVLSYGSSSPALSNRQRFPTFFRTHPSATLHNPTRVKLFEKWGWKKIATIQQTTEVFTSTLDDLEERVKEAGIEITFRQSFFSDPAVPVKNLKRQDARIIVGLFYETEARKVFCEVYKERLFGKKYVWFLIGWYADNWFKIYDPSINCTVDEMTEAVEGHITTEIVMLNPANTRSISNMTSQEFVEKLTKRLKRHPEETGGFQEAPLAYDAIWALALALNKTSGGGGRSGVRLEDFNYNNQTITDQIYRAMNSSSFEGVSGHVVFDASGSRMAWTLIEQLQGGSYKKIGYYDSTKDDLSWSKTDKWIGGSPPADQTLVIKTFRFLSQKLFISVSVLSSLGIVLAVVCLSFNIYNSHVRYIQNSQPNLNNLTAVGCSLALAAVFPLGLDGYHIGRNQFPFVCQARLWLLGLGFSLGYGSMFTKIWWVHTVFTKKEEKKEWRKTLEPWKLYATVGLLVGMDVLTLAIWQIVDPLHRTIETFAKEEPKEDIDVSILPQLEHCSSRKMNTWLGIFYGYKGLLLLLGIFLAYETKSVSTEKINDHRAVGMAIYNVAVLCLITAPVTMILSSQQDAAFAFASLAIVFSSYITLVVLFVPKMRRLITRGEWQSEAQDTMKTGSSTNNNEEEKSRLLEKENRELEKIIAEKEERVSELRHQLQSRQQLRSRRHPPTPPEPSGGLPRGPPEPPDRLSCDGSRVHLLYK
Chain of 5-hydroxytryptamine receptor 5A (P47898 whole entry): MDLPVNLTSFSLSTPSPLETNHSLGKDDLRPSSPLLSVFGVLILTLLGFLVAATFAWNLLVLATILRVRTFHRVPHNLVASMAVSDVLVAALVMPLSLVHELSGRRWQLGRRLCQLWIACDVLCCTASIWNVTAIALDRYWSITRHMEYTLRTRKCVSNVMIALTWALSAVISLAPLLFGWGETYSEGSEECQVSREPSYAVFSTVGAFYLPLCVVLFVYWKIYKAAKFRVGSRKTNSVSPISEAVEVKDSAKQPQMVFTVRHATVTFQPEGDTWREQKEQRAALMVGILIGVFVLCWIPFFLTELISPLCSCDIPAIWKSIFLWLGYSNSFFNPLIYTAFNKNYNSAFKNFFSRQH
Chain of Rod cGMP-specific 3',5'-cyclic phosphodiesterase subunit alpha (P16499 whole entry): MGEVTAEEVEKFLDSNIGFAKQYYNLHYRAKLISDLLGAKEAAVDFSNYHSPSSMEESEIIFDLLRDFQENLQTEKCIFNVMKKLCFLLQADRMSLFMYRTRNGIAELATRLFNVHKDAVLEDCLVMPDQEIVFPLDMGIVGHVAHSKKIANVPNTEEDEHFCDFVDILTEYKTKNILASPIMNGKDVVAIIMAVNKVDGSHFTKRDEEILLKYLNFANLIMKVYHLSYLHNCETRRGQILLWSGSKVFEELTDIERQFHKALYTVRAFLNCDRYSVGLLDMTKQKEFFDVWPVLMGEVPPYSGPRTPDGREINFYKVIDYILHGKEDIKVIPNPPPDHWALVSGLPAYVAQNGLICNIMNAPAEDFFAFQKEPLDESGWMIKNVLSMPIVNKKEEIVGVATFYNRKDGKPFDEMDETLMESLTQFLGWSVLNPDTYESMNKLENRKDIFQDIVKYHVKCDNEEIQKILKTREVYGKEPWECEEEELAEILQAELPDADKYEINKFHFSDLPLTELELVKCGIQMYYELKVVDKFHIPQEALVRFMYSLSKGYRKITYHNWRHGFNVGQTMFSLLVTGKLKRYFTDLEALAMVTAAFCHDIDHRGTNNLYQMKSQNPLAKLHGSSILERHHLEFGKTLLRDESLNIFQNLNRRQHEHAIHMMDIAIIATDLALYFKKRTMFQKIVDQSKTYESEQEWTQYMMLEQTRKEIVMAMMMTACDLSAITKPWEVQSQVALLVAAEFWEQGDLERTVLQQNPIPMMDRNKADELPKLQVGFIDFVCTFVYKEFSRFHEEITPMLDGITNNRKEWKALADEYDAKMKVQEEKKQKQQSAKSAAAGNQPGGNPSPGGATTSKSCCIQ
Chain of Cannabinoid receptor 1 (P21554 whole entry): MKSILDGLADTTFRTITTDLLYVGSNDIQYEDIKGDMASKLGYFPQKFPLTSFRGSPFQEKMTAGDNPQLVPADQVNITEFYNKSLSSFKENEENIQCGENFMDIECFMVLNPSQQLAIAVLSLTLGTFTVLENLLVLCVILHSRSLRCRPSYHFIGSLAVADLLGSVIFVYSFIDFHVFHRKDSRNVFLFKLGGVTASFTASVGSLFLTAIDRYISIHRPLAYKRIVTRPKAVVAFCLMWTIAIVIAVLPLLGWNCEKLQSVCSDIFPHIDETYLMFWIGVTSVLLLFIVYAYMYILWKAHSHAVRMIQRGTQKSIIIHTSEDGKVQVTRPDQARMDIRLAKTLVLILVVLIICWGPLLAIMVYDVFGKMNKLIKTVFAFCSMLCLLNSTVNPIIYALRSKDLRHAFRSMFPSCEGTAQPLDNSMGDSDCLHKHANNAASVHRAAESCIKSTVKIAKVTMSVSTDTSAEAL
Chain of 5-hydroxytryptamine receptor 6 (P50406 whole entry): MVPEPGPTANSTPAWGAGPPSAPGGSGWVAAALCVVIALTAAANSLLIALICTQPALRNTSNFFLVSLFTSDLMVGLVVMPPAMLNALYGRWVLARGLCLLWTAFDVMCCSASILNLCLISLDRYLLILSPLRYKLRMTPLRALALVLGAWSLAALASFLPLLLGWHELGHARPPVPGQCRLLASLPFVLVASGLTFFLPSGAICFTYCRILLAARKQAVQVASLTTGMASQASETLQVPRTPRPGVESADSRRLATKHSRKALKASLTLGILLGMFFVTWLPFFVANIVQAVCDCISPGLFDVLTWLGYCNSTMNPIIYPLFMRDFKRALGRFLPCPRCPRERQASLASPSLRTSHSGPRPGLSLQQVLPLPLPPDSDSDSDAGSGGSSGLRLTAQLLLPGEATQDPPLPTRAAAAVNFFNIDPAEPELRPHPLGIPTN
T6 sequence (P35367 whole entry): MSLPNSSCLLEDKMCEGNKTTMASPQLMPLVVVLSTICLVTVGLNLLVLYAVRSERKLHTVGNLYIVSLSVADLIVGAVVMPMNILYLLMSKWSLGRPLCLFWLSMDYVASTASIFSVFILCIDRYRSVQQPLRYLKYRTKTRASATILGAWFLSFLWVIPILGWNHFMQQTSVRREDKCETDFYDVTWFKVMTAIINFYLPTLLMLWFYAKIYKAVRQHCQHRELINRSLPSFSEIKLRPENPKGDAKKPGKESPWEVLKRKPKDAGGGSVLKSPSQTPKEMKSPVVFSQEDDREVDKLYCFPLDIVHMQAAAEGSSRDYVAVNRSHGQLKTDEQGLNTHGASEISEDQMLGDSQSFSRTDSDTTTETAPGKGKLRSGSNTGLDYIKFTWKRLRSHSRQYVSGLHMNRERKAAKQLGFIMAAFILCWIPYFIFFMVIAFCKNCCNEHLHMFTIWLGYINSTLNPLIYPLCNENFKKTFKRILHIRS
Chain of Beta-1 adrenergic receptor (P08588 whole entry): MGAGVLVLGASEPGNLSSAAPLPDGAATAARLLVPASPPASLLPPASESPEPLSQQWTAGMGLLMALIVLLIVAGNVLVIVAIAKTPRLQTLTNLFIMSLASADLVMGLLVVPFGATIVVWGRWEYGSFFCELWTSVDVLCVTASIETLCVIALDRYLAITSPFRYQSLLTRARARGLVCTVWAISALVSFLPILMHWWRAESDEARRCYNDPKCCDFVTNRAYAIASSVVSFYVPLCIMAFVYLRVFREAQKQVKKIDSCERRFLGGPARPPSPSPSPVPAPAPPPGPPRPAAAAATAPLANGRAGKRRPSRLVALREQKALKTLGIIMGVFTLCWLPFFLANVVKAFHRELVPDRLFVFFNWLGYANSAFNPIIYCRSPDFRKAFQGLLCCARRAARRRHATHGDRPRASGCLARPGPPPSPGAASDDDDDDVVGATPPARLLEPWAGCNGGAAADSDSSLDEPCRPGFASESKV

**Q.** For `O=C(Nc1nc(-c2cc(Cl)cs2)c(N2CCN(C3CCCCC3)CC2)s1)c1cnc(N2CCC(C(=O)O)CC2)c(Cl)c1` [AVATROMBOPAG], which AC50 [1] is on record?
**A.** > 10 µM

**Q.** And the AC50 [2]?
**A.** > 10 µM

**Q.** And the AC50 (Substance-K receptor)?
**A.** > 10 µM

**Q.** And the AC50 [3]?
**A.** > 10 µM

**Q.** And the AC50 [4]?
**A.** > 10 µM

**Q.** And the AC50 [5]?
**A.** > 10 µM

**Q.** What about the AC50 (Cannabinoid receptor 1) of the same compound?
**A.** > 10 µM

**Q.** And the AC50 [6]?
**A.** > 10 µM

**Q.** And the AC50 [7]?
**A.** > 10 µM

**Q.** For `NS(=O)(=O)c1cc(C2(O)NC(=O)c3ccccc32)ccc1Cl` (stereo unspecified) [CHLORTHALIDONE], which AC50 [8] is on record?
**A.** > 100 µM

**Q.** How did the AC50 [9] turn out when `O=C(CCCN1CC=C(n2c(=O)[nH]c3ccccc32)CC1)c1ccc(F)cc1` [DROPERIDOL] was run?
**A.** > 50 µM

**Q.** Which results are given for `CCn1cc(C(=O)O)c(=O)c2cc(F)c(N3CCNCC3)nc21` [ENOXACIN]?
**A.** AC50 [1]: > 10 µM; AC50 [2]: > 10 µM; AC50 (Substance-K receptor): > 10 µM; AC50 [3]: > 10 µM; AC50 [4]: > 10 µM; AC50 [5]: > 10 µM; AC50 (Cannabinoid receptor 1): > 10 µM; AC50 [6]: > 10 µM; AC50 [7]: > 10 µM

**Q.** How did the AC50 [10] turn out when `c1ccc2c(CC3=NCCN3)cccc2c1` [NAPHAZOLINE] was run?
**A.** 0.0087 µM

**Q.** How did the AC50 [11] turn out when `CNC(=O)Oc1ccc2c(c1)[C@]1(C)CCN(C)[C@@H]1N2C` [PHYSOSTIGMINE] was run?
**A.** > 30 µM

**Q.** How did the AC50 [8] turn out when `NS(=O)(=O)c1cc(C(=O)O)cc(N2CCCC2)c1Oc1ccccc1` [PIRETANIDE] was run?
**A.** > 100 µM

**Q.** What does the source list for `O=C(CCCN1CCC2(CC1)C(=O)NCN2c1ccccc1)c1ccc(F)cc1` [SPIPERONE]?
**A.** AC50 (Histamine H1 receptor [12]): 1.2 µM; AC50 (Histamine H1 receptor [13]): 7.1 µM; AC50 [10]: 17 µM
